# Test results taken from the supplement of paper PMC10307832.
# What was measured:
# Assay in all cases: relative viability (nuclei count vs DMSO), 5 days (fraction); higher = more cells survive
# RO-3306 + Bortezomib = compound: C1=CC2=C(C=CC(=C2)C=C3C(=O)NC(=NCC4=CC=CS4)S3)N=C1 [RO-3306] + CC(C)C[C@H](NC(=O)[C@H](Cc1ccccc1)NC(=O)c1cnccn1)B(O)O [Bortezomib] (partner 0.002 µM)
# How it was run: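 Relative viability equals treated-well nuclei counts divided by vehicle-well nuclei counts. Counts came from 4× images of lung cancer cell lines grown in 1536-well plates for 5 days after pin-tool dosing on the day after seeding. Dosing used one drug alone or a fixed anchor-drug dose plus five library-drug doses (not always all listed) in √10 steps, and values are medians of duplicate plates.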
# [1] = compound: O=S(=O)(c1ccccc1)N(CC(F)(F)F)c1ccc(C(O)(C(F)(F)F)C(F)(F)F)cc1
# How it was run: (§1)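 Five library-drug doses, separated by factors of √10, were pinned into 1536-well plates holding lung cancer cell lines after an overnight stay at 37 °C. Cells were fixed, permeabilised and Hoechst-stained in one step after 5 days without medium change, then imaged at 4×. Viability compares treated-well with vehicle-well nuclei, counted in MetaXpress, as a median across plates. Passing plates had control CV below 25% and at least one doubling.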
# Foretinib = compound: COc1cc2c(Oc3ccc(NC(=O)C4(C(=O)Nc5ccc(F)cc5)CC4)cc3F)ccnc2cc1OCCCN1CCOCC1 [Foretinib] (anchor plate); conditions: 0.25 µM
# How it was run: as §1
# RO-3306 = compound: C1=CC2=C(C=CC(=C2)C=C3C(=O)NC(=NCC4=CC=CS4)S3)N=C1 [RO-3306]
# How it was run: as §1
Cell Line,relative viability (RO-3306 + Bortezomib; first compound 0.01 µM),relative viability (RO-3306 + Bortezomib; first compound 0.03162 µM),relative viability (RO-3306 + Bortezomib; first compound 0.1 µM),relative viability (RO-3306 + Bortezomib; first compound 0.3162 µM),relative viability (RO-3306 + Bortezomib; first compound 1 µM),relative viability ([1]; 0.8 µM),relative viability ([1]; 2.53 µM),relative viability ([1]; 8 µM),relative viability (Foretinib),relative viability (RO-3306; 0.01 µM),relative viability (RO-3306; 0.03162 µM),relative viability (RO-3306; 0.1 µM),relative viability (RO-3306; 0.3162 µM),relative viability (RO-3306; 1 µM)
RERF-LC-KJ,1.3,0.952,1.01,0.987,1.01,1.02,0.87,0.84,0.865,1.07,0.86,0.983,1.04,1.01
NCI-H647,1.13,0.889,1.04,0.931,0.751,1.14,0.849,0.877,1.17,0.881,0.841,0.928,1.07,0.864
NCI-H838,0.825,0.523,0.661,0.808,0.685,1.12,0.962,1.02,1.03,1.03,0.908,0.992,1.07,0.95
NCI-H2170,–,–,–,–,–,1.08,0.964,0.913,1.01,1.06,0.946,0.952,1.01,0.991
COR-L 105,0.792,0.718,0.777,0.822,0.622,0.947,0.786,0.918,1.07,0.859,0.784,0.798,0.906,0.948
HOP-62,0.505,0.961,0.674,0.882,1.03,1.02,0.923,0.837,1.12,1.09,0.966,1.06,1.01,1.07
A-427,0.935,1.04,0.942,0.906,0.478,1.08,0.929,1.21,1.08,1.06,0.94,1,1.02,0.574
PC-14,1.16,–,0.991,0.941,0.865,1.03,0.832,0.83,0.951,1.05,0.836,1.05,1.05,0.926
NCI-H1648,–,–,–,–,–,0.793,0.58,0.518,–,0.863,–,0.877,0.858,1.01
NCI-H1437,0.57,0.346,0.529,0.582,0.484,0.95,0.877,0.849,1.24,1.03,0.942,0.926,1.03,1.08
